Assay results from US9296723B2, “NAMPT inhibitors” (AbbVie Inc., priority 2012, dated 2016).

Columns and labels:
NAMPT [1] = target: T1, NAMPT (Homo sapiens, UniProt P43490); assay: Time-Resolved Fluorescence Resonance Energy Transfer (TR-FRET) Binding Assay of NAMPT; conditions: 6.8 nM NAMPT, 200 nM probe, equilibrated 3 hours, no substrates
In short: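 Compound was mixed with enzyme, probe and antibody and equilibrated 3 h at room temperature. TR-FRET read at Ex 337 nm, Em 520/495 nm. Ratios were normalized to controls and fitted to a four-parameter logistic equation for IC50.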

PC3 cells = assay: NAMPT Cell Proliferation Assay (Cell Titer Glo); format: cell-based; conditions: Homo sapiens, PC-3, 120 h, incubated 5 days, cell viability
In short: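 PC3 cells (500/well, RPMI with 10% heat-inactivated FBS) were exposed to 10-fold compound dilutions from […] for 5 days at 37 °C, 5% CO2. Viability was read with Cell Titer Glo; IC50 from sigmoidal fit of percent inhibition.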

NAMPT [2] = target: T1, NAMPT; assay: TR-FRET Binding Assay of NAMPT with PRPP; conditions: 2 nM NAMPT, 2 nM probe, 200 µM PRPP and 2.5 mM ATP, equilibrated 16 hours
Protocol: Time-Resolved Fluorescence Resonance Energy Transfer (TR-FRET) Binding Assay of NAMPT with PRPP
Compound handling and data processing were identical to the assay in the absence of substrates (above). Final concentrations were 1× assay buffer, 2% DMSO, 2 nM NAMPT, 2 nM probe, 1 nM Tb-anti-His antibody (Invitrogen #PV5895), 200 µM PRPP and 2.5 mM ATP. Reactions were equilibrated for 16 hours prior to measurement to allow for potential enzymatic modification of test compounds.

T1 sequence (P43490 whole entry): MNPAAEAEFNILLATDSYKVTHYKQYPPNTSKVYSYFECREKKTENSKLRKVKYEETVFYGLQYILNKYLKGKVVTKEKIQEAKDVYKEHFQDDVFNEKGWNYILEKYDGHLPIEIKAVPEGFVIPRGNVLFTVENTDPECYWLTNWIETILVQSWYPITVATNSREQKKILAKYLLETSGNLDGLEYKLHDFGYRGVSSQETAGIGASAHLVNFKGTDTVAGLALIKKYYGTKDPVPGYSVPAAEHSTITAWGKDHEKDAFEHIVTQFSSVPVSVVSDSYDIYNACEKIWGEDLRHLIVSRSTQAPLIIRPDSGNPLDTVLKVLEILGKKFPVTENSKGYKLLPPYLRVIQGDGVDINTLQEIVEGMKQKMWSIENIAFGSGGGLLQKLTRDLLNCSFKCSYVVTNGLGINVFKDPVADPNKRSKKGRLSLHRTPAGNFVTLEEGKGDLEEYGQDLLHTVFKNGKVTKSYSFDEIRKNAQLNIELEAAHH

| SMILES | IC50 (NAMPT [1]) | IC50 (PC3 cells) | IC50 (NAMPT [2]) |
| --- | --- | --- | --- |
| CC[C@H](C)C(=O)N1CC(Oc2ccc(NC(=O)N3CC(c4cccnc4)C3)cc2)C1 [Example 1, N-[4-({1-[(2S)-2-methylbutanoyl]azetidin-3-yl}oxy)phenyl]-3-(pyridin-3-yl)azetidine-1-carboxamide] | 24.9 nM | 11.7 nM | 0.873 nM |
| O=C(CC1CCOCC1)N1CCC(Oc2ccc(NC(=O)N3CC(c4cccnc4)C3)cc2)CC1 [Example 2, 3-(pyridin-3-yl)-N-(4-{[1-(tetrahydro-2H-pyran-4-ylacetyl)piperidin-4-yl]oxy}phenyl)azetidine-1-carboxamide] | 125 nM | 34.9 nM | 0.37 nM |
| O=C(CC1CCOCC1)N1CCC(Oc2ccc(NC(=O)N3CC(c4cncc(F)c4)C3)cc2)CC1 [Example 3, 3-(5-fluoropyridin-3-yl)-N-(4-{[1-(tetrahydro-2H-pyran-4-ylacetyl)piperidin-4-yl]oxy}phenyl)azetidine-1-carboxamide] | 1220 nM | 4680 nM | 7.64 nM |
| CC[C@H](C)C(=O)N1CCC(Oc2ccc(NC(=O)N3CC(c4cccnc4)C3)cc2)CC1 [Example 4, N-[4-({1-[(2S)-2-methylbutanoyl]piperidin-4-yl}oxy)phenyl]-3-(pyridin-3-yl)azetidine-1-carboxamide] | 19.7 nM | 14 nM | 0.195 nM |
| O=C(CC(F)(F)F)N1CCC(Oc2ccc(NC(=O)N3CC(c4cccnc4)C3)cc2)CC1 [Example 6, 3-(pyridin-3-yl)-N-(4-{[1-(3,3,3-trifluoropropanoyl)piperidin-4-yl]oxy}phenyl)azetidine-1-carboxamide] | 53.4 nM | 30.6 nM | 0.224 nM |
| CC(C)(O)C(=O)N1CCC(Oc2ccc(NC(=O)N3CC(c4cccnc4)C3)cc2)CC1 [Example 7, N-(4-{[1-(2-hydroxy-2-methylpropanoyl)piperidin-4-yl]oxy}phenyl)-3-(pyridin-3-yl)azetidine-1-carboxamide] | 57.8 nM | 38.5 nM | 0.344 nM |
| Cc1ccc(C2CN(C(=O)Nc3ccc(OC4CCN(C(=O)CC5CCOCC5)CC4)cc3)C2)cn1 [Example 8, 3-(6-methylpyridin-3-yl)-N-(4-{[1-(tetrahydro-2H-pyran-4-ylacetyl)piperidin-4-yl]oxy}phenyl)azetidine-1-carboxamide] | 617 nM | 7030 nM | 15.4 nM |
| CC[C@H](C)C(=O)N1CC=C(c2ccc(NC(=O)N3CC(c4cccnc4)C3)cc2)CC1 [Example 9, N-(4-{1-[(2S)-2-methylbutanoyl]-1,2,3,6-tetrahydropyridin-4-yl}phenyl)-3-(pyridin-3-yl)azetidine-1-carboxamide] | 16.3 nM | 6.82 nM | 0.346 nM |
| COC(=O)c1ccc(NC(=O)N2CC(c3cccnc3)C2)cc1 [Example 13, methyl 4-({[3-(pyridin-3-yl)azetidin-1-yl]carbonyl}amino)benzoate] | 201 nM | 514 nM | 0.374 nM |
| O=C(Nc1ccc(C2CN(C(=O)c3ccsc3)C2)cc1)N1CC(c2cccnc2)C1 [Example 219, 3-(pyridin-3-yl)-N-{4-[1-(thiophen-3-ylcarbonyl)azetidin-3-yl]phenyl}azetidine-1-carboxamide] | 19.4 nM | – | 0.29 nM |
| O=C(CN1CCOCC1)N1CC(c2ccc(NC(=O)N3CC(c4cccnc4)C3)cc2)C1 [Example 221, N-{4-[1-(morpholin-4-ylacetyl)azetidin-3-yl]phenyl}-3-(pyridin-3-yl)azetidine-1-carboxamide] | 152 nM | – | 0.319 nM |
| Cc1ccc(C(=O)N2CC(c3ccc(NC(=O)N4CC(c5cccnc5)C4)cc3)C2)s1 [Example 223, N-(4-{1-[(5-methylthiophen-2-yl)carbonyl]azetidin-3-yl}phenyl)-3-(pyridin-3-yl)azetidine-1-carboxamide] | 21.6 nM | – | 0.391 nM |
| Cn1cccc1C(=O)N1CC(c2ccc(NC(=O)N3CC(c4cccnc4)C3)cc2)C1 [Example 225, N-(4-{1-[(1-methyl-1H-pyrrol-2-yl)carbonyl]azetidin-3-yl}phenyl)-3-(pyridin-3-yl)azetidine-1-carboxamide] | 14 nM | – | 0.268 nM |
| O=C(Nc1ccc(C2CN(C(=O)c3nccs3)C2)cc1)N1CC(c2cccnc2)C1 [Example 228, 3-(pyridin-3-yl)-N-{4-[1-(1,3-thiazol-2-ylcarbonyl)azetidin-3-yl]phenyl}azetidine-1-carboxamide] | 19.6 nM | – | 0.31 nM |
| CC(C)C(C)C(=O)N1CC(c2ccc(NC(=O)N3CC(c4cccnc4)C3)cc2)C1 (centres unmarked) [Example 230, N-{4-[1-(2,3-dimethylbutanoyl)azetidin-3-yl]phenyl}-3-(pyridin-3-yl)azetidine-1-carboxamide] | 38.8 nM | – | 0.305 nM |
| O=C(Nc1ccc(C2CCN(CC3CCCCC3)CC2)cc1)N1CC(c2cccnc2)C1 [Example 232, N-{4-[1-(cyclohexylmethyl)piperidin-4-yl]phenyl}-3-(pyridin-3-yl)azetidine-1-carboxamide] | 352 nM | – | 0.181 nM |
| O=C(Nc1ccc(C2CCN(CCC3CC3)CC2)cc1)N1CC(c2cccnc2)C1 [Example 242, N-{4-[1-(2-cyclopropylethyl)piperidin-4-yl]phenyl}-3-(pyridin-3-yl)azetidine-1-carboxamide] | 374 nM | – | 0.225 nM |
| CC(C)(C)CN1CC(c2ccc(NC(=O)N3CC(c4cccnc4)C3)cc2)C1 [Example 254, N-{4-[1-(2,2-dimethylpropyl)azetidin-3-yl]phenyl}-3-(pyridin-3-yl)azetidine-1-carboxamide] | 246 nM | – | 0.174 nM |

Next, values leading:

| IC50 (NAMPT [1]) | IC50 (PC3 cells) | IC50 (NAMPT [2]) | SMILES |
| --- | --- | --- | --- |
| 41.5 nM | 38.9 nM | 0.25 nM | O=C(Nc1ccc(C2=CCN(C(=O)[C@H]3CCCO3)CC2)cc1)N1CC(c2cccnc2)C1 [Example 10, 3-(pyridine-3-yl)-N-(4-{1-[(2R)-tetrahydrofuran-2-ylcarbonyl]-1,2,3,6-tetrahydropyridin-4-yl}phenyl)azetidine-1-carboxamide] |
| 15.8 nM | 9.33 nM | 0.32 nM | O=C(Nc1ccc(C2=CCN(C(=O)[C@@H]3CCCO3)CC2)cc1)N1CC(c2cccnc2)C1 [Example 11, 3-(pyridine-3-yl)-N-(4-{1-[(2S)-tetrahydrofuran-2-ylcarbonyl]-1,2,3,6-tetrahydropyridin-4-yl}phenyl)azetidine-1-carboxamide] |
| 32.1 nM | 10.1 nM | 0.43 nM | CC(C)(O)C(=O)N1CC=C(c2ccc(NC(=O)N3CC(c4cccnc4)C3)cc2)CC1 [Example 12, N-{4-[1-(2-hydroxy-2-methylpropanoyl)-1,2,3,6-tetrahydropyridin-4-yl]phenyl}-3-(pyridin-3-yl)azetidine-1-carboxamide] |
| 879 nM | 6680 nM | 0.178 nM | N#Cc1ccc(NC(=O)N2CC(c3cccnc3)C2)cc1 [Example 14, N-(4-cyanophenyl)-3-(pyridin-3-yl)azetidine-1-carboxamide] |
| 307 nM | 99.9 nM | 0.917 nM | CC(C)(C)OC(=O)N1CCC(CCCCNC(=O)N2CC(c3cccnc3)C2)CC1 [Example 15, tert-butyl 4-[4-({[3-(pyridin-3-yl)azetidin-1-yl]carbonyl}amino)butyl]piperidine-1-carboxylate] |
| 69.2 nM | – | 0.294 nM | CC1(C(=O)N2CC(c3ccc(NC(=O)N4CC(c5cccnc5)C4)cc3)C2)CC1 [Example 227, N-(4-{1-[(1-methylcyclopropyl)carbonyl]azetidin-3-yl}phenyl)-3-(pyridin-3-yl)azetidine-1-carboxamide] |
| 40.3 nM | – | 0.314 nM | O=C(CC1CCCC1)N1CC(c2ccc(NC(=O)N3CC(c4cccnc4)C3)cc2)C1 [Example 229, N-{4-[1-(cyclopentylacetyl)azetidin-3-yl]phenyl}-3-(pyridin-3-yl)azetidine-1-carboxamide] |
| 760 nM | – | 0.529 nM | CCCC(C)CN1CCC(c2ccc(NC(=O)N3CC(c4cccnc4)C3)cc2)CC1 (centres unmarked) [Example 234, N-{4-[1-(2-methylpentyl)piperidin-4-yl]phenyl}-3-(pyridin-3-yl)azetidine-1-carboxamide] |
| 667 nM | – | 0.21 nM | CC(C)CCN1CCC(c2ccc(NC(=O)N3CC(c4cccnc4)C3)cc2)CC1 [Example 236, N-{4-[1-(3-methylbutyl)piperidin-4-yl]phenyl}-3-(pyridin-3-yl)azetidine-1-carboxamide] |
| 603 nM | – | 0.466 nM | CCCCN1CCC(c2ccc(NC(=O)N3CC(c4cccnc4)C3)cc2)CC1 [Example 240, N-[4-(1-butylpiperidin-4-yl)phenyl]-3-(pyridin-3-yl)azetidine-1-carboxamide] |
| 1170 nM | – | 0.516 nM | CCC(C)(C)CN1CCC(c2ccc(NC(=O)N3CC(c4cccnc4)C3)cc2)CC1 [Example 244, N-{4-[1-(2,2-dimethylbutyl)piperidin-4-yl]phenyl}-3-(pyridin-3-yl)azetidine-1-carboxamide] |
| 598 nM | – | 0.223 nM | CCC(C)(C)CN1CC(c2ccc(NC(=O)N3CC(c4cccnc4)C3)cc2)C1 [Example 257, N-{4-[1-(2,2-dimethylbutyl)azetidin-3-yl]phenyl}-3-(pyridin-3-yl)azetidine-1-carboxamide] |
